Where no end group is shown, it is not given here.
What was measured:
[1] = target: neurokinin-1 receptor (Rattus norvegicus, UniProt P14600); conditions: in vivo; cited from earlier work
[2] = tested on: acute heart failure caused by viral infection; conditions: human, in vivo
[3] = tested on: chronic heart failure caused by systolic dysfunction; conditions: human, in vivo
[4] = tested on: chronic heart failure caused by diastolic dysfunction; conditions: human, in vivo
[5] = tested on: isolated cardiac fibroblasts; conditions: cited from earlier work

Chain of neurokinin-1 receptor (P14600 whole entry): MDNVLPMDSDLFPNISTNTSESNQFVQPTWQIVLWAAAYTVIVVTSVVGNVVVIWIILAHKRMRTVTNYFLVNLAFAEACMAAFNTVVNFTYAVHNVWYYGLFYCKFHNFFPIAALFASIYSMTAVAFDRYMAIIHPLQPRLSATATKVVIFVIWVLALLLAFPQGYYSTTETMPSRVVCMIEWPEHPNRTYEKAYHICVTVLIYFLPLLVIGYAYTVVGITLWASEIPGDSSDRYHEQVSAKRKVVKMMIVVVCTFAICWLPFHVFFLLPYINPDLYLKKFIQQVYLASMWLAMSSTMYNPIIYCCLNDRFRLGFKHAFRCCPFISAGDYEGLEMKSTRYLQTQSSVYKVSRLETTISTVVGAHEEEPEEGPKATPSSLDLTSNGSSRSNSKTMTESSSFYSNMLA

## CC(=O)N[C@@H](Cc1c[nH]c2ccccc12)C(=O)OCc1cc(C(F)(F)F)cc(C(F)(F)F)c1 [L732138]
[1]
  cardiac fibrosis in SHR: prevented
  increase of fetal gene expression by cardiomyocytes in SHR: prevented
  upregulation of endothelin-1 in SHR: prevented

## [N-]=[N+]=O [nitrous oxide]
[2]
  glutamate blood level: lower than before
  patient-reported respiratory rate and peripheral edema: significant improvement in respiratory rate and peripheral edema
  substance P blood level: lower than before

## botulinum toxin
[3]
  Substance P blood levels: lower than before
  patient-reported breath and fatigue: significant improvement in breath and fatigue
[4]
  glutamate blood level: lower than before
  patient-reported breath and pulmonary edema: significant improvement in breath and pulmonary edema
  substance P blood level: lower than before

## substance P: sensory nerve neuropeptide (tachykinin) acting on the neurokinin-1 receptor (RPKPQQFFGLM; ends and bridges not checked; UniProt P20366 58-68, looked up)
[5]
  fibroblast function: no changes in fibroblast function were observed
  genes related to cell-cell adhesion, cell-matrix adhesion, and extracellular matrix regulation: transiently up-regulated

From patent publication US20240238392A1 (priority 2023, published 2024)
